According to patent publication US10662193B2, “Carbazole and carboline compounds for use in the diagnosis, treatment, alleviation or prevention of disorders associated with amyloid or amyloid-like proteins” (AC IMMUNE SA, priority 2014, dated 2020):

Each molecule was assayed on tau tangles/Aβ plaques on AD brain sections (assay: Assay 1: direct staining of human Alzheimer's disease brain sections (fluorescence)). Settings: 100 μM compound; human AD brain sections; fluorescence; cell does not say tangles or plaques.
Assay type: binding
Design: key to Direct staining of tau tangles/Aβ plaques on AD brain sections at 100 μM / Direct staining of tau tangles on AD brain sections at 100 μM / Direct staining of Aβ plaques on AD brain sections at 100 μM / Direct staining of tau tangles on AD brain sections (footnote a: at 250 μM): − (No); +++ (strong); ++ (good); + (weak)
Description: Assay 1 (Fluorescence Based Assay):
Direct Binding of Compounds of this Invention to Human Alzheimer's Disease Brain Sections and/or Displacement of RefA and Compound B
Frozen sections with a thickness of […] from the amygdala of donors diagnosed with Braak stage V-VI Alzheimer's Disease (Braak, H.; Braak, E. Acta Neuropathol., 1991, 82, 239-259), were purchased from a commercial provider (Tissue Solutions) and kept at −80° C. until use.
Direct Staining of Human Alzheimer's Disease Brain Sections
Brain sections were encircled with pap pen liquid blocker to reduce the volume of solution for the different incubations. Sections were fixed for 15 min at 4° C. with 4% paraformaldehyde and washed three times 5 minutes with PBS at room temperature. […] To reduce the auto-fluorescence of the tissue, the sections were incubated in a solution of 0.1% Sudan Black (Sigma 199664) in 70% ethanol for 15 min at room temperature in the dark, washed four times for 5 minutes with PBS, and mounted using ProLong Gold Antifade reagent (Invitrogen P36930). Sections were then analyzed on the Nikon Eclipse Ti microscope to detect staining and imaged using Nikon DS-Fi2 camera and NIS-Element AR4.13.1 software.

| Structure (SMILES) | Direct staining of tau tangles/Aβ plaques on AD brain sections at 100 μM |
| --- | --- |
| Cn1c2c(c3ccc(Nc4ccc5nsnc5c4)nc31)C(=O)N(CCF)CC2 [Example 188] | − |
| CN1CCc2c(c3ccc(Nc4ccn(CCF)n4)nc3n2C)C1=O [Example 190] | − |
| CN1CCc2c(c3ccc(Nc4cnn(CCCF)c4)nc3n2C)C1=O [Example 191] | − |
| Cn1c2cc[nH]c(=O)c2c2ccc(Nc3cccc(OC(F)F)c3)nc21 [Example 193] | − |
| Cn1ccc2c(c1=O)c1ccc(Nc3ccc(F)c(F)c3)nc1n2C [Example 194] | − |
| CN1CCc2c(c3ccc(N4CCC[C@@H](F)C4)nc3n2C)C1=O [Example 196] | − |
| CN1CCc2c(c3ccc(Nc4ccc(OCCF)c(F)c4)nc3n2C)C1=O [Example 198] | − |
| CN1CCc2c(c3ccc(Nc4ccc(O)c(F)c4)nc3n2C)C1=O [Example 202] | − |
| CN1CCc2c(c3ccc(Nc4ccc(F)c(O)c4)nc3n2C)C1=O [Example 203] | − |
| CN1CCc2c(c3ccc(Nc4ccnc(OCCF)c4)nc3n2C)C1=O [Example 204] | − |
| Cn1c2c(c3ccc(Nc4ccnc(OCCF)c4)nc31)C(=O)NCC2 [Example 205] | − |
| CN1CCc2c(c3ccc(Nc4ccc(OCCF)cn4)nc3n2C)C1=O [Example 206] | − |
| Cn1c2c(c3ccc(Nc4ccc(OCCF)cn4)nc31)C(=O)NCC2 [Example 207] | − |
| Cn1c2c(c3ccc(Nc4cc(OCCF)ccn4)nc31)C(=O)NCC2 [Example 208] | − |
| CN1CCc2c(c3ccc(Nc4cccc(OCCF)n4)nc3n2C)C1=O [Example 209] | − |
| Cn1c2c(c3ccc(Nc4cccc(OCCF)n4)nc31)C(=O)NCC2 [Example 210] | − |
| CN1CCc2c(c3ccc(Nc4ccc(F)c([N+](=O)[O-])c4)nc3n2C)C1=O [Example 211] | − |
| CN1CCc2c(c3ccc(Nc4ccc(F)c([N+](C)(C)C)c4)nc3n2C)C1=O [Example 212] | − |

Same assay, conditions: 100 μM compound; plaques

| Structure (SMILES) | Direct staining of Aβ plaques on AD brain sections at 100 μM |
| --- | --- |
| Cn1c2c(c3ccc(Nc4cccc(F)n4)nc31)C(=O)NCC2 [Example 184] | + (plaques) |
| CN1CCc2c(c3ccc(Nc4cccc(F)n4)nc3n2C)C1=O [Example 185] | + (plaques) |
| Cn1c2c(c3ccc(Nc4cnn(CCF)c4)nc31)C(=O)NCC2 [Example 186] | + (plaques) |
| Cn1c2c(c3ccc(Nc4ccc(OCCF)c(F)c4)nc31)C(=O)NCC2 [Example 199] | + (tangles) + (plaques) |
| CN1CCc2c(c3ccc(Nc4ccc(F)c(OCCF)c4)nc3n2C)C1=O [Example 200] | + (tangles) + (plaques) |

Same assay, conditions: 100 μM compound; tangles

| Structure (SMILES) | Direct staining of tau tangles on AD brain sections at 100 μM |
| --- | --- |
| Cn1c2c(c3ccc(Nc4ccc(C#N)c(F)c4)nc31)C(=O)N(CCF)CC2 [Example 187] | + (tangles) |
| Cn1c2c(c3ccc(Nc4ccc(OCCF)c(F)c4)nc31)C(=O)NCC2 [Example 199] | + (tangles) + (plaques) |
| CN1CCc2c(c3ccc(Nc4ccc(F)c(OCCF)c4)nc3n2C)C1=O [Example 200] | + (tangles) + (plaques) |

Same assay, conditions: 100 μM in 50% ethanol, 20 min; "(tangles)" beside the symbol = tangles stained

| Structure (SMILES) | Direct staining of tau tangles/Aβ plaques on AD brain sections at 100 μM |
| --- | --- |
| Cn1c2c(c3ccc(Nc4ccc(F)c(F)c4)nc31)C(=O)N(CCO)CC2 [Example 215] | − |
| CN(C)C(=O)CCc1ccc(/C=C2/C=CC(c3cccs3)N2)n1B(F)F (centres unmarked) [Prep. Example 17, reference compound] | − |
| COc1ccc(C2C(CCC(=O)NCCCCCC(=O)N(C)C)=C/C(=C/c3[nH]c(C)cc3C)N2B(F)F)cc1 (centres unmarked) [Prep. Example 18, reference compound] | − |
